Legend:
[1] = target: T1, Recombinant human HDAC6 (Homo sapiens, UniProt Q9UBN7); test: HDAC6 biochemical assay, AMC-labeled peptide substrate; conditions: HDAC6; read-out: HDAC Isoform IC50 (nM) 6
T1 construct: full length, MW=159 kDa; GST (N); host or cells: Sf9 insect cells (baculovirus)
T1 sequence (Q9UBN7 1-1215): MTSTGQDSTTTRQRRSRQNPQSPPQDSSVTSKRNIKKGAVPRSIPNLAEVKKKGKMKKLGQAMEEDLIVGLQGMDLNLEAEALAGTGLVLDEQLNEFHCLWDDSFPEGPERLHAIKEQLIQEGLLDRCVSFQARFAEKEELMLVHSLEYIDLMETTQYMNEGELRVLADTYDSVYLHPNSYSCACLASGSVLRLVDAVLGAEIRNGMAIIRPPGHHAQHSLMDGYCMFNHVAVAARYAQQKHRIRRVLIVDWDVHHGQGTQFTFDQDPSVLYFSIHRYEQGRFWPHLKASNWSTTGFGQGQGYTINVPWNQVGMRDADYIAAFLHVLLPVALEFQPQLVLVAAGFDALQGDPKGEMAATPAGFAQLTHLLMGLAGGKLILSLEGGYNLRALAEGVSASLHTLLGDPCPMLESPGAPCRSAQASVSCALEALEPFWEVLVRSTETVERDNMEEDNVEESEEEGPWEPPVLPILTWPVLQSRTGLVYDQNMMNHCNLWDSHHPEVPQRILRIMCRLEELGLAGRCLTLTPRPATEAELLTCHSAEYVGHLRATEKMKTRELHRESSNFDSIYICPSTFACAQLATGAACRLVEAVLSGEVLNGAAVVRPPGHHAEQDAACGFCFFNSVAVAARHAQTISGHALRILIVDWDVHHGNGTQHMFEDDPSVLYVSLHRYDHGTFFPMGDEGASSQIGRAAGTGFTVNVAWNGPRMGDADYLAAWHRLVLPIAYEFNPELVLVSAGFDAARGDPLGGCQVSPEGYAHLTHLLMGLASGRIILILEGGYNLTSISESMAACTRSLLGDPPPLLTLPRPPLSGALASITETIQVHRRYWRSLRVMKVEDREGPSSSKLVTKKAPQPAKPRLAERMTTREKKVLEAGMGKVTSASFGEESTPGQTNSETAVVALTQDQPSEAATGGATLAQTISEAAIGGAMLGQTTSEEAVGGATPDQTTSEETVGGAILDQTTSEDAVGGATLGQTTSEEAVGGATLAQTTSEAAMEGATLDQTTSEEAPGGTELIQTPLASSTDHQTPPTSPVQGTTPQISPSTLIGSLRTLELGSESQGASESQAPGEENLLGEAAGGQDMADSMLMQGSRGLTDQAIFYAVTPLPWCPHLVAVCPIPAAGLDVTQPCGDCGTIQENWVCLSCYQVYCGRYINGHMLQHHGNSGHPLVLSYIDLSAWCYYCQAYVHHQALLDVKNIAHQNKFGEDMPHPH
Procedure: (§1) Activity against all zinc-dependent HDACs 1 to 11 was assessed by using an acetylated AMC-labeled peptide substrate. The substrate RHKK(Ac)AMC was used for HDAC1, HDAC2, HDAC3, HDAC6 and HDAC10; the substrate used for HDAC8 was RHK(Ac)K(Ac)AMC. Activity against the class IIa HDACs (HDAC4, 5, 7, 9) and HDAC11 was determined using a class IIa-specific substrate, BOC-Lys(trifluoroacetyl)-AMC (“Trifluoroacetyl Lysine”; see Lahm et al, 2007, PNAS, 104, 17335-17340). All assays were based on the AMC-labeled substrate and developer combination.
(§2) The protocol involved a two-step reaction: first, the substrate with the acetylated lysine side chain is incubated with a sample containing HDAC activity, to produce the deacetylated products, which are then digested in the second step by the addition of developer to produce the fluorescent signal proportional to the amount of deacetylated substrates.
Recombinant human HDAC6 (GenBank Accession No. BC069243), full length, MW=159 kDa, was expressed by baculovirus in Sf9 insect cells using an N-terminal GST tag.
(§3) Assay Buffer: 50 mM Tris-HCl, pH8.0, 137 mM NaCl, 2.7 mM KCl, 1 mM MgC2. Before use, 1 mg/mL BSA and DMSO are added.
HDAC6: 0.3 ng/ul HDAC6 and 50 μM HDAC substrate are in the reaction buffer with 1% DMSO final. Incubate for 1 hours at 30° C.
(§4) Stage 1: Deacetylation of substrate by incubation of HDAC enzymes with compounds
(§5) Stage 2: Development by addition of Developer to digest the deacetylated substrate, and generate the fluorescent colour; Detection: 360/460 Ex/Em

[2] = target: T2, Human HDAC4 (Homo sapiens, UniProt P56524); test: HDAC4 biochemical assay, class IIa-specific substrate; conditions: read-out: HDAC Isoform IC50 (nM) 4
T2 construct: amino acids 627-1085 with N-terminal GST tag; GST (N); host or cells: baculovirus expression system
Procedure: as §1, §2
Human HDAC4 (GenBank Accession No. NM_006037), amino acids 627-1085 with N-terminal GST tag, MW=75.2 kDa, expressed in baculovirus expression system.
as §3
(§6) For class IIa HDACs, assay buffer is the same.
HDAC4: 0.004 ng/ul HDAC4 and 50 μM Class IIa HDAC substrate are in the reaction buffer with 1% DMSO final. Incubate for 30 minutes at room temperature.
as §4, §5

[3] = target: T3, Human HDAC1 (Homo sapiens, UniProt Q13547); test: HDAC1 biochemical assay, AMC-labeled peptide substrate; conditions: read-out: HDAC Isoform IC50 (nM) 1
T3 construct: full length with C-terminal His-tag and C-terminal FLAG-tag; His (C); FLAG (C); host or cells: baculovirus expression system
Procedure: as §1, §2
Human HDAC1 (GenBank Accession No. NM_004964), full length with C-terminal His-tag and C-terminal FLAG-tag, MW=56 kDa, expressed in baculovirus expression system.
as §3
HDAC1: 0.3 ng/ul HDAC1 and 50 μM HDAC substrate are in the reaction buffer with 1% DMSO final. Incubate for 1 hour at 30° C.
as §4, §5

[4] = target: T4, Human HDAC5 (Homo sapiens, UniProt Q9UQL6); test: HDAC5 biochemical assay, class IIa-specific substrate; conditions: read-out: HDAC Isoform IC50 (nM) 5
T4 construct: full length with C-terminal His tag, MW=51.1 kDa; His (C); host or cells: baculovirus expression system
Procedure: as §1, §2
Human HDAC5 (GenBank Accession No. NM_005474), full length with C-terminal His tag, MW=51.1 kDa, expressed in baculovirus expression system.
as §3, §6
HDAC5: 0.05 ng/ul HDAC5 and 50 μM Class IIa HDAC substrate are in the reaction buffer with 1% DMSO final. Incubate for 30 minutes at room temperature.
as §4, §5

[5] = target: T5, Human HDAC9 (Homo sapiens, UniProt Q9UKV0); test: HDAC9 biochemical assay, class IIa-specific substrate; conditions: read-out: HDAC Isoform IC50 (nM) 9
T5 construct: amino acids 604-1066 with C-terminal His tag; His (C); host or cells: baculovirus expression system
Procedure: as §1, §2
Human HDAC9 (GenBank Accession No. NM_178423), amino acids 604-1066 with C-terminal His tag, MW=50.7 kDa, expressed in baculovirus expression system.
as §3, §6
HDAC9: 0.06 ng/ul HDAC9 and 50 μM Class IIa HDAC substrate are in the reaction buffer with 1% DMSO final. Incubate for 30 minutes at room temperature.
as §4, §5

[6] = target: T6, Human HDAC7 (Homo sapiens, UniProt Q8WUI4); test: HDAC7 biochemical assay, class IIa-specific substrate; conditions: read-out: HDAC Isoform IC50 (nM) 7
T6 construct: (a.a. 518-end) with N-terminal GST tag; GST (N); host or cells: baculovirus expression system
T6 sequence (Q8WUI4 518-952 limits assumed): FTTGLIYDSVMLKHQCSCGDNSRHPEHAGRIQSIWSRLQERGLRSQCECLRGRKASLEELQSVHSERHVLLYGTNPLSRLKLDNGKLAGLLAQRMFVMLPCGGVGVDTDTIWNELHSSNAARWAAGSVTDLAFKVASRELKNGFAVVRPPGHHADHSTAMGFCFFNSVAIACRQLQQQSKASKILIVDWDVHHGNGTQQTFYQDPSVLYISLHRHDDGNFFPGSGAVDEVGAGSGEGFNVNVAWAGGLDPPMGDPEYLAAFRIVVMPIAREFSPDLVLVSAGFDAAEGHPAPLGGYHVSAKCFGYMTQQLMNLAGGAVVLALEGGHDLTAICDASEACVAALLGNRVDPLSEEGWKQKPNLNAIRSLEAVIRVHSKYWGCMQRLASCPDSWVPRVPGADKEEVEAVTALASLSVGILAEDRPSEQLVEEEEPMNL
Procedure: as §1, §2
Human HDAC7 (GenBank Accession No. AY302468), (a.a. 518-end) with N-terminal GST tag, MW=78 kDa, expressed in baculovirus expression system.
as §3, §6
HDAC7: 0.001 ng/ul HDAC7 and 50 μM Class IIa HDAC substrate are in the reaction buffer with 1% DMSO final. Incubate for 30 minutes at room temperature.
as §4, §5

T3 sequence (Q13547 whole entry, canonical isoform): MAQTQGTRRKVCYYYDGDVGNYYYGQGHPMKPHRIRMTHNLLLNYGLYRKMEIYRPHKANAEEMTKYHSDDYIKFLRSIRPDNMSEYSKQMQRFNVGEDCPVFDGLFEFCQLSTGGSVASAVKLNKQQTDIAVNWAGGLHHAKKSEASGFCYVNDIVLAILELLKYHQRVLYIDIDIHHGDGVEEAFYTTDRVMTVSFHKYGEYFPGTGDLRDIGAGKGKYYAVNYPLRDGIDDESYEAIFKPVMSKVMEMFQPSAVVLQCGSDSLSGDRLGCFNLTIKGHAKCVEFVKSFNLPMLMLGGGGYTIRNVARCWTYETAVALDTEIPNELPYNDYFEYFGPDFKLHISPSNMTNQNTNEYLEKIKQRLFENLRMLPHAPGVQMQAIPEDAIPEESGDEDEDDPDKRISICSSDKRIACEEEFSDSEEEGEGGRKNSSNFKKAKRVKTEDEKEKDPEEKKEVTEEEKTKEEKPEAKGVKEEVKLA
T2 sequence (P56524 627-1084 limits assumed): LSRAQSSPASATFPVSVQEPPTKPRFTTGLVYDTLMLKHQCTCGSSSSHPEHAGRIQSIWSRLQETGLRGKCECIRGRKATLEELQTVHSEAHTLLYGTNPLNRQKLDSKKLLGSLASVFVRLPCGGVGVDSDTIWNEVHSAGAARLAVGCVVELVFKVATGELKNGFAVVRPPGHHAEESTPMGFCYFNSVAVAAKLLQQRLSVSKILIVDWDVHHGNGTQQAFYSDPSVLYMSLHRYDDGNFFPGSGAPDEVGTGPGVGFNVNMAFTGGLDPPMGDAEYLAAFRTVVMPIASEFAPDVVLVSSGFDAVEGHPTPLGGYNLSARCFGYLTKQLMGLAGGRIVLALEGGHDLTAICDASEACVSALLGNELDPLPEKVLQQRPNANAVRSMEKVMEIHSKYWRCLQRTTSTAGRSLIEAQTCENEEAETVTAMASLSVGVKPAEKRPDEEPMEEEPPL
T5 sequence (Q9UKV0 604-1066 isoform Q9UKV0-5): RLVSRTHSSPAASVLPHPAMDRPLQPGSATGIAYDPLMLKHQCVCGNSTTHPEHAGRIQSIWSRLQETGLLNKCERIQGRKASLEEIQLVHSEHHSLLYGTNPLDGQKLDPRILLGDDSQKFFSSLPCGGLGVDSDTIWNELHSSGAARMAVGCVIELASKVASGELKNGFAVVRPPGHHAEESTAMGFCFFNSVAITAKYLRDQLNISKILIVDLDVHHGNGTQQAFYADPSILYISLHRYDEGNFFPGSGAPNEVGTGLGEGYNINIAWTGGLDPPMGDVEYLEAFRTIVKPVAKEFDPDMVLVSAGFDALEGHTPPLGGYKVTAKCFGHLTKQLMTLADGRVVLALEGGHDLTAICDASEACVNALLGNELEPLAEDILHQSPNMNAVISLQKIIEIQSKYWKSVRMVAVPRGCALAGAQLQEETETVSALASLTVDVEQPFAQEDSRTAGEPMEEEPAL
T4 sequence (Q9UQL6 656-1122 limits assumed): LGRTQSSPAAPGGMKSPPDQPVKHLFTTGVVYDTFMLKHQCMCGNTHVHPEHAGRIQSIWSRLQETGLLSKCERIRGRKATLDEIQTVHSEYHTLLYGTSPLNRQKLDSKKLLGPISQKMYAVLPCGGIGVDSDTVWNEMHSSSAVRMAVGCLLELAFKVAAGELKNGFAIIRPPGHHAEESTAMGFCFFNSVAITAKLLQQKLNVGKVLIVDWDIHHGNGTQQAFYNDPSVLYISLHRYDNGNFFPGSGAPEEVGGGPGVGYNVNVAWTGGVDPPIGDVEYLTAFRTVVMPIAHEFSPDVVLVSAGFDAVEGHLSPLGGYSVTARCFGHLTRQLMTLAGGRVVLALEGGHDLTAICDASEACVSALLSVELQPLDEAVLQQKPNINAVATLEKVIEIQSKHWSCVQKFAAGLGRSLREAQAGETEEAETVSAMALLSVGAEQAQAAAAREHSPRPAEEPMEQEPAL

Compound | IC50 [1] | IC50 [2] | IC50 [3] | IC50 [4] | IC50 [5] | IC50 [6]
Cc1ncc(N(Cc2ccc(-c3noc(C(F)(F)F)n3)s2)c2cnccn2)cn1 [Example CS, 2-Methyl-N-(pyrazin-2-yl)-N-({5-[5-(trifluoromethyl)-1,2,4-oxadiazol-3-yl]thiophen-2-yl}methyl)pyrimidin-5-amine] | ≤ 1000 nM | ≤ 500 nM | ≤ 10000 nM | ≤ 1000 nM | ≤ 10000 nM | ≤ 500 nM
FC(F)(F)c1nc(-c2ccc(CN(c3cnccn3)c3cc(C4CC4)ccn3)s2)no1 [Example AH, N-(4-Cyclopropylpyridin-2-yl)-N-({5-[5-(trifluoromethyl)-1,2,4-oxadiazol-3-yl]thiophen-2-yl}methyl)pyrazin-2-amine] | ≤ 10000 nM | > 10000 nM | > 10000 nM | ≤ 10000 nM | > 10000 nM | > 10000 nM
CN(C)C(=O)c1cncc(N(Cc2ccc(-c3noc(C(F)(F)F)n3)s2)c2cnccn2)n1 [Example BS, N,N-Dimethyl-6-[(pyrazin-2-yl)({5-[5-(trifluoromethyl)-1,2,4-oxadiazol-3-yl]thiophen-2-yl}methyl)amino]pyrazine-2-carboxamide] | ≤ 10000 nM | ≤ 10000 nM | > 10000 nM | ≤ 10000 nM | ≤ 10000 nM | ≤ 10000 nM
Cc1cncc(N(Cc2ccc(-c3noc(C(F)(F)F)n3)s2)c2cc(C(F)(F)F)cnn2)n1 [Example EM, N-(6-Methylpyrazin-2-yl)-5-(trifluoromethyl)-N-({5-[5-(trifluoromethyl)-1,2,4-oxadiazol-3-yl]thiophen-2-yl}methyl)pyridazin-3-amine] | ≤ 1000 nM | ≤ 10000 nM | > 10000 nM | ≤ 10000 nM | > 10000 nM | ≤ 10000 nM
COc1cnnc(N(Cc2ccc(-c3noc(C(F)(F)F)n3)s2)c2cnccn2)c1 [Example DV, 5-Methoxy-N-(pyrazin-2-yl)-N-({5-[5-(trifluoromethyl)-1,2,4-oxadiazol-3-yl]thiophen-2-yl}methyl)pyridazin-3-amine] | ≤ 10000 nM | ≤ 10000 nM | > 10000 nM | ≤ 1000 nM | ≤ 10000 nM | ≤ 10000 nM
Cc1cncnc1N(Cc1ccc(-c2noc(C(F)(F)F)n2)s1)c1cnccn1 [Example CO, 5-Methyl-N-(pyrazin-2-yl)-N-({5-[5-(trifluoromethyl)-1,2,4-oxadiazol-3-yl]thiophen-2-yl}methyl)pyrimidin-4-amine] | ≤ 1000 nM | ≤ 500 nM | > 10000 nM | ≤ 1000 nM | ≤ 10000 nM | ≤ 1000 nM

Second part, the compound after the results:

IC50 [1] | IC50 [2] | IC50 [3] | IC50 [4] | IC50 [5] | IC50 [6] | Compound
≤ 10000 nM | ≤ 10000 nM | > 10000 nM | ≤ 10000 nM | ≤ 10000 nM | ≤ 10000 nM | Cc1ncc(N(Cc2ccc(-c3noc(C(F)(F)F)n3)s2)c2cnccn2)nc1C [Example BT, 5,6-Dimethyl-N-(pyrazin-2-yl)-N-({5-[5-(trifluoromethyl)-1,2,4-oxadiazol-3-yl]thiophen-2-yl}methyl)pyrazin-2-amine]
≤ 1000 nM | ≤ 1000 nM | > 10000 nM | ≤ 1000 nM | ≤ 10000 nM | ≤ 1000 nM | FC(F)(F)c1nc(-c2ccc(CN(c3cnccn3)c3ccc4nccnc4n3)s2)no1 [Example Z, N-{Pyrido[2,3-b]pyrazin-6-yl}-N-({5-[5-(trifluoromethyl)-1,2,4-oxadiazol-3-yl]thiophen-2-yl}methyl)pyrazin-2-amine]
≤ 10000 nM | ≤ 500 nM | > 10000 nM | ≤ 500 nM | ≤ 1000 nM | ≤ 500 nM | FC(F)(F)c1nc(-c2ccc(CN(c3cnccn3)c3cncnc3C3CC3)s2)no1 [Example CZ, 4-Cyclopropyl-N-(pyrazin-2-yl)-N-({5-[5-(trifluoromethyl)-1,2,4-oxadiazol-3-yl]thiophen-2-yl}methyl)pyrimidin-5-amine]
≤ 1000 nM | ≤ 1000 nM | > 10000 nM | ≤ 1000 nM | ≤ 10000 nM | ≤ 1000 nM | FC(F)(F)c1nc(-c2ccc(CN(c3cnccn3)c3nccnn3)s2)no1 [Example DE, N-(Pyrazin-2-yl)-N-({5-[5-(trifluoromethyl)-1,2,4-oxadiazol-3-yl]thiophen-2-yl}methyl)-1,2,4-triazin-3-amine]

From US20210038607A1, “OXADIAZOLYLTHIOPHENE DERIVATIVES USEFUL AS HISTONE DEACETYLASE INHIBITORS” (Karus Therapeutics Limited, priority 2018, published 2021)
